According to patent US9694090B2, “Process for preparing hyperpolarized substrates and method for MRI” (priority 2010, dated 2017):

Legend:
[1] = DNP solid-state polarization signal and build-up (1.2 K, 3.35 T); settings: DNP at 1.2 K
Procedure: To this solution 1.1 mg (0.77 μmol) radical 1 was added. […] This entire sample was hyperpolarized under DNP conditions at 1.2 K in a 3.35 T magnetic field under irradiation with microwave (93.900 GHz) until the polarization was fully build-up. The polarization was monitored in solid state with small pulse angles (5 degree) collected every 300 s.
This entire sample was polarized under DNP conditions at 1.2 K in a 3.35 T magnetic field under irradiation with microwave (93.900 GHz) until the polarization was fully built-up. The polarization was monitored in solid state with small pulse angles (5 degree) collected every 300 s.
To this solution 0.77 mg (0.54 μmol) radical 1 was added. […] This entire sample was polarized under DNP conditions at 1.2 K in a 3.35 T magnetic field under irradiation with microwave (93.900 GHz) until the polarization was fully built-up. The polarization was monitored in solid state with small pulse angles (5 degree) collected every 300 s.
To this solution 1.65 mg (1.15 μmol) radical 1 was added. […] This entire sample was polarized under DNP conditions at 1.2 K in a 3.35 T magnetic field under irradiation with microwave (93.900 GHz) until the polarization was fully built-up. The polarization was monitored in solid state with small pulse angles (5 degree) collected every 300 s.
63.2 mg (0.33 mmol) of this sample was hyperpolarized under DNP conditions at 1.2 K in a 3.35 T magnetic field under irradiation with microwave (93.900 GHz) until the polarization was fully built-up.

[2] = Glass formation of the DNP preparation upon rapid freezing in liquid nitrogen; assay type: physicochemical; settings: for Glass formation upon rapid freezing: with trityl radical, without addition of glass-forming agents; for Glass formation upon rapid freezing in liquid nitrogen: dissolved in 12 M NaOH with radical 1
Procedure: Butyric acid (11.7 mg, 0.13 mmol) was placed into an Eppendorf tube and mixed with 9.0 mg of a glycerol solution containing 39 mM of Radical 1. This preparation was 7 M with respect to butyric acid.
Butyric anhydride (40 μl, 0.24 mmol) was added to an Eppendorf tube and mixed with 1 mg of Radical 3 in a total concentration of 15 mM. This preparation was 6.5 M with respect to butyric anhydride (which, upon hydrolysis provides a 13 M concentration in butyric acid molecules).
Butyric acetic anhydride (36 μl, 0.28 mmol) was added to an Eppendorf tube and mixed with 0.85 mg of acid form of Radical 3 in a total concentration of 15 mM. This preparation was 7.5 M with respect to butyric acetic acid.
Li-acetoacetate (22.4 mg, 0.21 mmol) was added to an Eppendorf tube and mixed with 28 μl of a DMSO preparation (25 mM Radical 3 and 0.8 mM 3-Gd). This preparation was 4 M with respect to Li-acetoacetate.
To an Eppendorf tube was added diketene (9.6 mg, 0.11 mmol) and mixed with 4.7 mg of a DMSO preparation of Radical 3 (45 mM) and 3-Gd (1.5 mM). This preparation was 8.5 M with respect to diketene.
Ethyl acetoacetate (45 μl, 0.34 mmol) was added to an Eppendorf tube and mixed with acid form of Radical 2 (0.7 mg, 0.65 μmol) in a total concentration of 15 mM. This preparation was 8 M with respect to ethyl acetoacetate.
Cis-aconitic acid (18.6 mg, 0.11 mmol) was added to an Eppendorf tube and mixed with a 32.5 μl DMSO preparation (25 mM Radical 3 and 0.8 mM 3-Gd). This preparation was 2.5 M with respect to cis-aconitic acid.
Cis-aconitic anhydride (188 mg, 1.2 mmol) was added to an Eppendorf tube and mixed with 2.85 mg (2 μmol) of Radical 1 and 0.98 mg of a 83 μmol/g solution of 3-Gd. This preparation was 9 M with respect to cis-aconitic anhydride.
Succinic acid (42.1 mg, 0.35 mmol) was added to an Eppendorf tube and mixed and mixed with 92 mg of a DMSO preparation (20 mM Radical 3 and 0.8 mM 3-Gd). This preparation was 4 M with respect to succinic acid.
Succinic anhydride (21.5 mg, 0.21 mmol) was added to an Eppendorf tube and mixed with 21.8 mg of a DMSO solution of Radical 3 (30 mM) and of 3-Gd (1 mM). This preparation was 6 M with respect to succinic anhydride.
Succinic-(1)-ethyl ester (111 mg, 0.75 mmol) was added to an Eppendorf tube and mixed with the carboxylic acid form of Radical 2 (2.4 mg, 1.5 μmol) and 3-Gd (3.4 μl of a 14.5 mM solution in water). This preparation was 6 M with respect to succinic-(1)-ethyl ester.
(§1) L-Glutamine (50.9 mg, 0.35 mmol) was added to an Eppendorf tube and dissolved in 29 μl of 12 M NaOH and mixed with 1.7 mg of radical 1 and 3-Gd (2.3 μl of a 14.5 mM water stock solution). This preparation was 4 M with respect to L-glutamine.

[3] = Hydrolysis of the DNP hyperpolarized precursor on dissolution with strong base, followed by 13C-NMR time series; assay type: physicochemical; settings: water with added NaOH
Procedure: The composition from example 1b (25 mg, 0.16 mmol) was transferred from the Eppendorf tube to a sample cup and the sample cup was inserted into a DNP polariser. The composition was hyperpolarised under DNP conditions at 1.2 K in a 3.35 T magnetic field under irradiation with microwave (93.915 GHz). The sample was hyperpolarized for 75 min.
The sample was dissolved in 4 ml water with added NaOH (50 μl of 12M solution). The pH of the dissolved sample was 12. The solution was collected directly into a 10 mm NMR tube and transferred to a 14.1 T magnet where a time series of 5 degree 1D 13C-NMR spectra were recorded with a total delay between the pulses of 1 s.
The composition from example is (33 mg, 0.25 mmol) was transferred from the Eppendorf tube to a sample cup and the sample cup was inserted into a DNP polariser. The composition was hyperpolarised under DNP conditions at 1.2 K in a 3.35 T magnetic field under irradiation with microwave (93.915 GHz). The sample was hyperpolarized for 90 min.
The sample was dissolved in 5 ml water with added NaOH (125 μl of 12M). The solution was collected directly into a 10 mm NMR tube and transferred to a 14.1 […]) T magnet where a time series of 5 degree 1D 13C-NMR spectra were recorded with a total delay between the pulses of 1 s.
The entire composition from example 2b was transferred from the Eppendorf tube to a sample cup and the sample cup was inserted into a DNP polariser. The composition was hyperpolarised under DNP conditions at 1.2 K in a 3.35 T magnetic field under irradiation with microwave (93.915 GHz). The sample was hyperpolarized for 3 hours.
(§2) The sample was dissolved in 5 ml water with added NaOH (125 μl of 12 M). The solution was collected directly into a 10 mm NMR tube and transferred to a 14.1 T magnet (pH 13) where a time series of 64 five degree 1D 13C-NMR spectra were recorded with a total delay between the pulses of 3 s.
The composition from example is (20.5 mg, 0.16 mmol) was transferred from the Eppendorf tube to a sample cup and the sample cup was inserted into a DNP polariser. The composition was hyperpolarised under DNP conditions at 1.2 K in a 3.35 T magnetic field under irradiation with microwave (93.915 GHz). The sample was hyperpolarized for 2 hours.
(§3) The sample was dissolved in 5 ml water with added NaOH (200 μl of 12 M). The solution was collected directly into a 10 mm NMR tube and transferred to a 14.1 T magnet (pH 12.8) where a time series of 5 degree 1D 13C-NMR spectra were recorded with a total delay between the pulses of 3 s.
The composition from example 2b was melted on a water-bath and stirred with a magnetic stirrer. 45 mg of this preparation (0.29 mmol) was transferred from the Eppendorf tube to a sample cup and the sample cup was inserted into a DNP polariser. The composition was hyperpolarised under DNP conditions at 1.2 K in a 3.35 T magnetic field under irradiation with microwave (93.915 GHz). The sample was hyperpolarized for 90 min.
(§4) The sample was dissolved in 6 ml water with added NaOH (190 μl of 12 M). The solution was collected directly into a 10 mm NMR tube and transferred to a 14.1 T magnet (pH 12.8) where a time series of 64 five degree 1D 13C-NMR spectra were recorded with a total delay between the pulses of 3 s.

[4] = Degradation / isomerisation of the substrate in DNP preparation and dissolution (NMR)
Procedure: The entire composition from example 2a was transferred from the Eppendorf tube to a sample cup and the sample cup was inserted into a DNP polariser. The composition was hyperpolarised under DNP conditions at 1.2 K in a 3.35 T magnetic field under irradiation with microwave (93.915 GHz). The sample was hyperpolarized for 75 min.
The sample was dissolved in 5 ml phosphate buffer pH 7.3 (40 mM+EDTA).
The solution was collected directly into a 10 mm NMR tube and transferred to a 14.1 T magnet where a 90 degree 1D 13C-NMR spectrum was recorded.
as §2, §3
The sample was dissolved in 5 ml 40 mM phosphate buffer pH 7.3+100 mg/l EDTA, thus resulting in an ester concentration of 20 mM. 1 ml of the ester solution was injected through a transfer line into a 10 mm NMR tube placed at 14.1 T and 37° C. The 10 mm NMR tube contained a 500 μl solution of approximately 270 U of a carboxylic-ester hydrolase from porcine liver. A time series of 10 degree 1D 13C-NMR spectra were recorded with a total delay between the pulses of 3 s.
The sample was dissolved in 5 ml phosphate buffer (40 mM, pH 7.3) with added 30 μl 12 M NaOH. […] The solution was collected directly into a 10 mm NMR tube and transferred to a 14.1 T magnet where a time series of 5 degree 1D 13C-NMR spectra were recorded with a total delay between the pulses of 3 s.
as §4, §1
N-acetyl-L-glutamine (57.2 mg, 0.3 mmol) was added to an Eppendorf tube and dissolved in 25.3 μl of 12 M NaOH and mixed with 1.9 mg of radical 1 and 3-Gd (2.3 μl of a 14.5 mM water stock solution).

[5] = T1 relaxation time in solution at 14.1 T; assay type: physicochemical; settings: 14.1 T and 37° C.
Procedure: The ester was only partly hydrolyzed.
The T1 of the hydrolyzed product, succinate is 33 s (14.1 T and 37° C.).
The sample was dissolved in 5 ml phosphate buffer (100 mM, pH 7) with added one equivalent HCl. The pH is 7.1 after dissolution.
The pH is 7.2 after dissolution.

[6] = molecular target: T1, acylase from porcine kidney (Sus scrofa, UniProt P37111); test: Enzymatic hydrolysis of the hyperpolarized N-acetyl amino acid with acylase, 13C-NMR time series; assay type: biochemical; settings: phosphate buffer pH 7.3, 37° C.
T1 construct: an acylase from porcine kidney; from tissue; host or cells: porcine kidney
T1 sequence (P37111 2-407 limits assumed): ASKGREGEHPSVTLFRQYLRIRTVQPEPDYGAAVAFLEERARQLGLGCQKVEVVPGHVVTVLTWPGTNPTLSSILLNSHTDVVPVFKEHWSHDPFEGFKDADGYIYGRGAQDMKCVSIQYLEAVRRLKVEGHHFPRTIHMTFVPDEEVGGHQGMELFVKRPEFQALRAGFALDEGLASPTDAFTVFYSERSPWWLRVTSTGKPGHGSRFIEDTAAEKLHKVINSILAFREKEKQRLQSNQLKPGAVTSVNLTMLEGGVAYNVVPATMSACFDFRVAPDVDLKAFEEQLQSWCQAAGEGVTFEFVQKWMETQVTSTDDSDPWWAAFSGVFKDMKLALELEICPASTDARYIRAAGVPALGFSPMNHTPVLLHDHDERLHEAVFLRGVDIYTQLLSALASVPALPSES
Procedure: The sample was hyperpolarized for 60 min.
The 10 mm NMR tube contained a 1 ml phosphate solution of approximately 90 U of an acylase from porcine kidney.
35 mg of N-acetyl glycine (117.1 g/mol, 0.298 mmol) was dissolved in 26 μl 12 M NaOH. Heating, sonication and vortexing was applied to create a clear glassing solution. The total weight of the sample was 71 mg (50 μl weigh 65 mg). 1.05 mg Radical 1 and 1.5 μl of a 3-Gd stock solution ([…]) was added. The total N-acetyl glycine concentration in the sample was 5.5 M, the radical concentration was 13.5 mM, and the 3-Gd concentration was 0.4 mM.
The sample was dissolved in 7 ml 40 mM phosphate buffer (40 mM, pH 7.3). […] The 10 mm NMR tube contained a 500 μl phosphate solution of approximately 230 U of an acylase (5.2 mg) from porcine kidney.

[7] = Glass formation of the DNP preparation upon rapid freezing in liquid nitrogen; assay type: physicochemical; settings: dissolved in heated water with Radical 1 and 3-Gd
[8] = system: carboxylic-ester hydrolase from porcine liver; test: Enzymatic hydrolysis of the hyperpolarized ester with esterase, 13C-NMR time series; assay type: biochemical; settings: approximately 270 U esterase, phosphate buffer pH 7.3, 37° C.
Source text: The ester was fully hydrolyzed to acetoacetate after 12s.

Row | SMILES | Polarization build-up time constant [1] | Glass formation upon rapid freezing [2] | Glass formation upon rapid freezing in liquid nitrogen [2] | further results
1 | CCOC(=O)C1CCC(=O)N1 (centres unmarked) [1-13C pyroglutamic ethyl ester] | 2070 s | formed a glass |  | Precursor hydrolyzed ([3]; in less than 10 s, pH 11-12.6): at least 95%
2 | C=C(CC(=O)O)[13C](=O)O [1-13C Itaconic acid, reference compound] | 1790 s |  | formed a glass | 
3 | CC(=O)CC(=O)O [acetoacetate] |  |  |  | Degradation (decarboxylation) of acetoacetate formed ([4]; after esterase hydrolysis of ethyl acetoacetate, pH 7.3): No degradation; Degradation (decarboxylation) of acetoacetate formed ([4]; after hydrolysis of precursor with NaOH, pH 12.8-13): No substantial degradation; T1 of the C1 position in the hydrolyzed product [5]: 32 s; T1 of the hydrolyzed product [5]: 32 s
4 | CC(=O)N[C@@H](CCC(N)=O)C(=O)O [N-acetyl-L-glutamine] |  |  | formed a glass | Degradation in the DNP preparation [4]: does not degrade; Degradation in the dissolution process ([4]; pH 7.3): does not degrade; Time after which precursor was fully hydrolyzed ([6]; approximately 90 U acylase): 45 s
5 | CC(=O)NCC(=O)O [N-acetyl glycine] |  |  |  | Time after which precursor was fully hydrolyzed ([6]; approximately 230 U acylase): 30 s
6 | O=C([O-])CCC(=O)C(=O)[O-].[Na+].[Na+] [2-oxoglutarate sodium salt] |  |  |  | Glass formation upon rapid freezing in liquid nitrogen [7]: formed a glass
7 | CCOC(=O)CC(C)=O [Ethyl acetoacetate] |  | formed a glass |  | Time after which ester was fully hydrolyzed [8]: 12 s; Precursor hydrolyzed ([3]; after 10 s, pH 12-13): approximately 20%
8 | CCO[13C](=O)C1CSC(=O)N1 (centres unmarked) [1-13C OTZ ethyl ester] | 1925 s | formed a glass |  | 
9 | O=C1N[C@H]([13C](=O)O)CS1 [1-13C OTZ, 1-13C-L-oxothiazolidine-4-carboxylic acid, reference compound] | 3500 s |  | formed a glass | 
10 | C=C(CC(=O)OCC)[13C](=O)OCC [1-13C Itaconate diethyl ester] | 2120 s | formed a glass |  | 
11 | O=C1CCC([13C](=O)O)N1 (centres unmarked) [1-13C Pyroglutamic acid, reference compound] | 2000 s |  | formed a glass | 
